This is an account of results in US5236955A, “Anti-fungal agent” (Washington University, priority 1992, dated 1993).

Assay [1] has as its system C. neoformans lipids. Nature of the assay: Incorporation of label into total cellular lipids. The settings on record: 1 hr, 30° C. The format is cell-based. The procedure: (§1) Cells were incubated with the indicated [^3 H]fatty acid (specific activity=30 Ci/mmol, 100 μCi/ml media) for 1 h at 30° C. After the organisms were pelleted and washed, spheroplasts were prepared and total lipids extracted. Tests were done on two separate occasions. The incorporation of label from each of the oxatetradecanoic acid analogs and from palmitate into total cellular lipids is expressed as a percentage of the total amount of label incorporated from [^3 H]myristate.
(§2) Analysis of the incorporation of exogenous fatty acids into cellular phospholipids and neutral lipids--Five ml cultures were labeled with each of the 5 tritiated fatty acids or with [9,10(n)^3 H]palmitate (30 Ci/mmol) at 30° C. for 60 min (S. cerevisiae and C. albicans) or for 75 min (C. neoformans) as described in the preceding paragraph. S. cerevisiae and C. albicans cells were then pelleted by centrifugation at 4000×g for 5 min. and washed first in water followed by a wash with 1M sorbitol. […]
(§3) Dried lipids were resuspended in 500 μl CHCl3 :MeOH(1:1). A 2 μl aliquot was counted in a scintillation counter to determine the extent of incorporation of label into cellular lipids. […]

Assay [2] concerns C. albicans lipids. The experiment in a line: Incorporation of label into total cellular lipids. The format is cell-based. The settings on record: 1 hr, 30° C. The procedure: as §1, §2, §3
Assay [3] has as its system HIV-1. The settings on record: acutely infected human T lymphocyte cell line; cited from earlier work.
The subject of assay [4] is C. albicans. The experiment in a line: Viability of C. albicans. As to conditions: Candida albicans. The format is cell-based. The procedure: Oxatetradecanoic acids were added (final concentraton=25-500 μM) as a single dose to log phase cultures of C. alibcans grown in SAB at 30° C. (Panels A and B) and to log phase cultures of S. cerevisiae grown in YPD at 30° C. (Panels C and D). The results were compared to the number of viable organisms present in cultures treated with 0.1% EtOH alone. […] A single does of alphotericin B (final concentration=55 μM) was added to parallel cultures which served as positive controls. Assays were done in duplicate. Representative tests are shown.
Saccharomyces cerevisiae strain YM2061 (MATa ura3-52 his3Δ200 ade2-101 lys2-801 met LEU2::pRY181 can1; Flick and Johnston, Mol. Cell. Biol. 10, 4757-4769 (1990), Candida albicans strain B311 (obtained from the American Type Tissue Culture, Rockville, Md.), or Cryptococcus neoformans strain L210425 (a clinical isolate that is part of the permanent culture collection of the Mycology Laboratory, Barnes Hospital, St. Louis, Mo.) were grown overnight at 30 C. The S. cerevisiae strain was incubated in YPD medium (1% bacto-yeast extract, Gibco, Long Island, N.Y.), 2% bacto-peptone (Gibco), 2% dextrose). The C. albicans and C. neoformans strains were grown in Sabouraud's media (SAB; 2% (w/v) dextrose, 1% bacto-peptone). The following morning the cultures were diluted into fresh medium to the desired density at 600 nm (early log phase), and subsequently incubated in a rotary shaker at 30° C. until an A600 =0.5 (mid log phase) was achieved. The culture was then divided into 10 ml aliquots. A single 10 μl aliquot of a stock solution of fatty acid analog (prepared in various concentrations using absolute ethanol) was added to the culture so that the final concentration of the compound was 100-500 μM (T=0). Ten microliters of ethanol alone was added to one 10 ml culture which served as the negative control. Amphotericin B (AmB; in the form of Fungizone, Squibb) was added (final concentration=55 μM) to another culture which served as the positive control. At T=0 and 0.5-24 h after addition of fatty acid analog to the subcultures, an aliquot was removed for determining the density of the subculture at 600 nm. Cell viability was determined at each of these time points by (i) serially diluting the aliquot in 0.15M NaCl and counting cell number in a hemocytometer and (ii) plating 2-3 of the dilutions in triplicate onto plates of SAB/agar (C. albicans and C. neoformans) or YPD/agar (S. cerevisiae). These plates were subsequently incubated at 30° C. for 24-48 hr to allow for the growth of colonies. The data were expressed as the ratio of viable cells/ml in the fatty acid analog treated subculture to the number of viable cells/ml in the negative (ethanol) control culture.

Take `CCCCCCCCCCOCCC(=O)O` [O4, 4-oxatetradecanoic acid]: the “label incorporated into C. neoformans lipids, of the amount observed with [3H]myristate” value in assay [1] is recorded as 27-28%. In addition, the “label incorporated into C. albicans lipids, of the amount observed with [3H]myristate” value in assay [2] is listed as 27-28%. Besides, the HIV-1 replication result in assay [3] is recorded as “inhibits HIV-1 replication”. Further, in assay [4] (300 μM, 2 hr after addition, read-out: reductions in the number of viable C. albicans), the log reduction at 300 µM is under 0.699. Also, the log reduction at 500 µM in assay [4] (500 μM, read-out: reduction in the number of viable organisms (C. albicans)) is 1 to 2.
